{
  "source": "patent US10905738B2",
  "about": "“Synthetic peptides, prodrugs, pharmaceutical compositions and uses” (Biozeus Desenvolvimento De Produtos Biofarmacêuticos, priority 2018, dated 2021)",
  "key": {"[1]": {"system": "monocrotaline-induced model of pulmonary arterial hypertension (PAH)", "assay": "hemodynamic parameters and heart remodeling in monocrotaline-induced model of PAH", "assay_type": "in vivo, male Wistar Rats", "details": "0.06 mg/kg intranasal twice daily for 14 days", "text": "The monocrotaline (MCT) model is the most widely used animal model of PAH, being the oldest in existence and best described among the available models. This model offers the advantage of mimicking several key aspects of human PAH, including vascular remodeling, proliferation of smooth muscle cells, endothelial dysfunction, up-regulation of inflammatory cytokines, and right ventricle failure, after a single intraperitoneal or subcutaneous MCT injection (GOMEZ-ARROYO, J. G., FARKAS, L., ALHUSSAINI, A. A., FARKAS, D., KRASKAUSKAS, D., VOELKEL, N. F., BOGAARD, H. J. The Monocrotaline Model of Pulmonary Hypertension in Perspective. Am J Physiol Lund Cell Mol Physiol, 302(4): L363-9. 2012).\nThe currently preferred species for the study of MCT-induced PAH is the rat, with clinical signs of the illness manifesting in 3-7 days after the MCT injection in the form of anorexia, listlessness, failure to gain weight, and tachypnea. As the lung injury and vascular remodeling progress, the animals develop variable degrees of dyspnea, weakness, diarrhea and peripheral cyanosis (SCHOENTAL R., HEAD, M. A. Pathological changes in rats as a result of treatment with monocrotaline. Br J Cancer, 9(1):229-37. 1955). One week after the MCT injection, endothelial damage, inflammatory infiltration, and edema can be observed, but no increase in pulmonary arterial pressure (PAP). After two weeks, PAP is increased leading to right ventricle (RV) hypertrophy by the third week after drug administration (WEST, J., HEMMES, A. Experimental and transgenic models of pulmonary hypertension. Compr Physiol, 1(2):769-82. 2011).\nTo assess the potential benefit of SEQ ID NO: 19 in the treatment of PAH, we used adult healthy male Wistar Rats, which were then randomized into two groups: monocrotaline-induced PAH (MCT, n=14), in which animals received 60 mg/kg of MCT intraperitoneally (C2401, Sigma Chemical Co., St Louis, Mo., USA, Batch Number: WXBC4737V) and 2) control (CTRL, n=7), in which animals received a similar volume of saline solution intraperitoneally. This would be day 0 of the study. On the same day, prior to being randomized, the animals were subjected to echocardiographic analysis to establish a baseline. On day 14, another echocardiography was done, and PAH animals were further randomized to receive intranasal saline (SAL) or SEQ ID NO: 19 (0.06 mg/kg), twice daily for 14 days. On day 28, echocardiographies were repeated, RV exit area, left ventricle (LV) area, and PAT/PET (pulmonary arterial acceleration time (PAT)/pulmonary arterial ejection time (PET) ratio). In the PAH disease, the increase of PAP leads to an increase in RV area due to the increased pressure, and a decrease in the LV area, due to a reduction in blood flow to the left ventricle. […] Hemodynamic parameters were measured by invasive RV catheterization, including the systolic pressure of RV (RVSP) and the dP/dt ratio (a derivative of pressure/derivative of maximum time), which is correlated to the pressure in the RV.\nThe experiments were analyzed with two-way ANOVA, followed by Bonferroni's post-test to determine statistical significance. […]"}, "[2]": {"system": "monocrotaline-induced model of PAH", "assay": "anti-inflammatory effect in monocrotaline-induced model of PAH (lymph node weight, heart homogenate cytokines by ELISA)", "assay_type": "in vivo, male Wistar Rats", "details": "0.06 mg/kg, MCT rats", "text": "In the experiment described in example 5, the animals were killed for postmortem analyses of inflammatory markers.\nIn 1 out of 5 patients with PAH, the mediastinal lymph nodes are enlarged due to inflammation-related edema (BERGIN, C. J., PARK, K. J. Lymph node enlargement in pulmonary arterial hypertension due to chronic thromboembolism. J Med Imaging Radiat Oncol, 52(1):18-23. 2008). Edematous organs weigh more, due to the increased liquid content, therefore we weighed several organs of the animals of example 5 post-euthanasia.\nSamples of hearts of the monocrotaline study were investigated to uncover the potential anti-inflammatory action of SEQ ID NO: 19. Hearts were kept on ice during all sample homogenization processes. Lysis buffer containing 1% protease inhibitor cocktail (Sigma) diluted in phosphate-buffered saline (PBS) was added in a proportion of 1 mL for each sample. Sodium orthovanadate (SIGMA) 1 mM was also added. Tissues were homogenized and then centrifuged at 10,000 g for 10 min. Supernatants of each sample were collected into sterile identified tubes for measurements of total protein and cytokine levels (tumor necrosis factor (TNF)-α, interferon (INF)-γ, and interleukin (IL)-1β).\nTotal protein values in the samples were measured using the Bradford assay (BioRad, Hercules, Calif., USA), according to manufacturer's instructions. Briefly, the protocol was performed in a microplate in a final volume of 150 μl. A calibration curve linear range between 0.025 and 2.0 mg/ml was prepared with bovine serum albumin (BSA, SIGMA). Protein solutions were assayed in duplicate. Samples were diluted 20-fold into lysis buffer, and then 25 μl from these samples was loaded into each well. Using a multichannel pipet, 125 μl of Quick Start™ Bradford 1× Dye Reagent solution was added to yield a final volume of 150 μl. The samples were incubated at room temperature for 5 min, and the absorbance was then measured with a spectrophotometer at 595 nm (SpectraMax Microplate reader, Molecular Devices, San Jose, Calif., USA). The standard curve was plotted as a linear regression line that was interpolated with the mean absorbance of each sample in order to find a sample's total protein concentration expressed as mg/ml.\nConcentrations of TNF-α, INF-γ, and IL-1β were measured using an enzyme-linked immunosorbent assay (ELISA) for heart homogenates. TNF-α (Catalog #900-K54) and INF-γ (Catalog #900-K98) kits were purchased from Peprotech (Rocky Hill, […]., USA) while the IL-1β (DY401) kit was from R&D Systems (Minneapolis, Minn., USA). The assays were performed in accordance with the manufacturer's recommendations.\nData analyses were performed with a statistical software package (Prism version 5.0, Graph-Pad Software, San Diego, Calif.). Data were expressed as mean±SEM. […]"}, "[3]": {"details": "RV catheterization, vs MCT+Vehicle"}, "[4]": {"details": "echocardiography, vs MCT+vehicle"}},
  "note": "Where a SMILES comes first, the peptide text is derived from it.",
  "data": [
    {"smiles": "CC[C@H](C)[C@H](NC(=O)[C@H](Cc1c[nH]c2ccccc12)NC(=O)[C@H](Cc1ccccc1)NC(C)=O)C(=O)N[C@@H](C)C(=O)N[C@@H](Cc1c[nH]c2ccccc12)C(=O)N[C@@H](Cc1ccc(O)cc1)C(=O)N[C@@H](CCCCN)C(=O)N[C@@H](CC(C)C)C(=O)N[C@@H](C)C(N)=O", "note": "[SEQ ID NO: 19, Ac-Phe-Trp-Ile-Ala-Trp-Tyr-Lys-Leu-Ala-NH2] (Ac-FWIAWYKLA-NH2)", "values": [
      {"measurement": "dP/dt Max ratio", "setting": "[1]; [3]", "value": "decrease"},
      {"measurement": "systolic pressure of RV (RVSP)", "setting": "[1]; [3]", "value": "decrease in RVSP"},
      {"measurement": "LV area", "setting": "[1]; [4]", "value": "increase in LV area"},
      {"measurement": "PAT/PET ratio", "setting": "[1]; [4]", "value": "increases the PAT/PET ratio to values similar to the non-treated group (control)"},
      {"measurement": "RV exit area", "setting": "[1]; [4]", "value": "decrease in RV exit area"},
      {"measurement": "IL-1β in heart homogenates", "setting": "[2]; ELISA", "value": "decreases the cytokines to values similar to control"},
      {"measurement": "INF-γ in heart homogenates", "setting": "[2]; ELISA", "value": "decreases the cytokines to values similar to control"},
      {"measurement": "TNF-α in heart homogenates", "setting": "[2]; ELISA", "value": "decreases the cytokines to values similar to control"},
      {"measurement": "edematous weight gain of mediastinal lymph nodes", "setting": "[2]; post-euthanasia organ weight", "value": "able to reduce the edematous weight gain"}
    ]}
  ]
}
